Measurements taken from patent US20070276034A1, “Compounds, compositions and methods for the treatment of synucleinopathies” (priority 2002, published 2007).
Where two headings read alike, the source gives them in different places.

How the values were obtained:
Type in all cases: biochemical
[1] = target: T1, Aβ 1-42 fibrils (Homo sapiens, UniProt P05067); experiment: Thioflavin T fluorometry - disruption of pre-formed Aβ 1-42 Alzheimer's fibrils; conditions: 25 μM pre-fibrillized Aβ 1-42, 37° C., 3 days, read-out: % Inhibition Aβ (result ± S.D.)
T1 construct: purchased Bachem Inc
How it was run: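 Pre-fibrillized Aβ1-42 (25 µM) incubated 3 days at 37 °C alone or with compound at Aβ:compound weight ratios 1:1 to 1:0.001. Remaining fibrils quantified by Thioflavin T fluorescence (ex 444/em 485 nm) in phosphate buffer pH 6.8, blank-subtracted for buffer or compound alone.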

[2] = target: T2, IAPP fibrils (Homo sapiens, UniProt P10997); experiment: Congo red binding assay with IAPP fibrils; conditions: 3-day incubation
T2 construct: purchased Bachem Inc
T2 sequence (P10997 34-70 limits assumed): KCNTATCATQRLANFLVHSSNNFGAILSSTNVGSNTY
How it was run: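 Congo red staining of washed 0.2 μm filters measured the aggregated IAPP retained after a 3-day co-incubation with compound or EDTA. Weight ratios IAPP:compound were 1:1, 1:0.1, 1:0.01 or 1:0.001; loss of color relative to compound-free IAPP was scored.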

[3] = target: T3, NAC fibrils (Homo sapiens, UniProt P37840); experiment: Thioflavin T fluorometry - disruption of Parkinson's disease NAC fibrils; conditions: 3 days; for inhibition: 25 μM pre-fibrillized NAC, 37° C., read-out: % Inhibition NAC (result ± S.D.); for disruption/disassembly of pre-formed NAC fibrils (in words): all concentrations tested (ratios 1:1 to 1:0.001)
T3 construct: NAC is a 35-amino acid fragment of α-synuclein; purchased Bachem Inc
Procedure: In this assay, Thioflavin T binds specifically to NAC fibrils, and this binding produces a fluorescence enhancement at 485 nm that is directly proportional to the amount of NAC fibrils present. The higher the fluorescence, the greater the amount of NAC fibrils present (Naki et al, Lab. Invest. 65:104-110, 1991; Levine III, Protein Sci. 2:404-410, 1993; Amyloid: Int. J. Exp. Clin. Invest. 2:1-6, 1995).
In this study, 25 μM of pre-fibrillized NAC (Bachem Inc) was incubated at 37° C. for 3 days either alone or in the presence of dihydroxy synthetic analog compounds #1, 3, 23, 26, 52, 63, 66, 67, or EDTA (at NAC:test compound weight ratios of 1:1, 1:0.1, 1:0.01 or 1:0.001). Following 3-days of co-incubation, 50 βl of each incubation mixture was transferred into a 96-well microtiter plate containing 150 μl of distilled water and 50 μl of a Thioflavin T solution (i.e. 500 mM Thioflavin T in 250 mM phosphate buffer, pH 6.8). The fluorescence was read at 485 nm (444 nm excitation wavelength) using an ELISA plate fluorometer after subtraction with buffer alone or compound alone, as blank.

[4] = target: T2, IAPP fibrils; experiment: Thioflavin T fluorometry - disruption of type 2 diabetes IAPP fibrils; conditions: 25 μM pre-fibrillized IAPP, 37° C., 3 days, read-out: % Inhibition IAPP (result ± S.D.)
How it was run: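 Pre-fibrillized human IAPP (25 μM) incubated 3 days at 37 °C alone or with compound at IAPP:compound weight ratios of 1:1 to 1:0.001. Mixtures then mixed with Thioflavin T in phosphate buffer pH 6.8; fluorescence read at 485 nm (ex 444 nm) after blank subtraction.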

[5] = Aβ:test compound wt/wt ratio 1:0.001
[6] = Aβ:test compound wt/wt ratio 1:0.01
[7] = Aβ:test compound wt/wt ratio 1:0.1
[8] = Aβ:test compound wt/wt ratio 1:1
[9] = IAPP:test compound wt/wt ratio 1:0.001
[10] = IAPP:test compound wt/wt ratio 1:0.01
[11] = IAPP:test compound wt/wt ratio 1:0.1
[12] = IAPP:test compound wt/wt ratio 1:1
[13] = NAC:test compound wt/wt ratio 1:0.001
[14] = NAC:test compound wt/wt ratio 1:0.01
[15] = NAC:test compound wt/wt ratio 1:1

T1 sequence (P05067 672-713): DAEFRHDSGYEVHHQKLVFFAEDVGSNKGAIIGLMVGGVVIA

Structure (SMILES)	inhibition [1, 5] [%]	inhibition [1, 6] [%]	inhibition [1, 7] [%]	inhibition [1, 8] [%]	% Inhibition IAPP (result ± S.D.), Congo red binding [2, 9] [%]	% Inhibition IAPP (result ± S.D.), Congo red binding [2, 10] [%]	% Inhibition IAPP (result ± S.D.), Congo red binding [2, 11] [%]	% Inhibition IAPP (result ± S.D.), Congo red binding [2, 12] [%]	inhibition [3, 13] [%]	inhibition [3, 14] [%]	inhibition [3, 15] [%]	disruption/disassembly of pre-formed NAC fibrils (in words) [3]	inhibition [4, 9] [%]	inhibition [4, 10] [%]	inhibition [4, 11] [%]	inhibition [4, 12] [%]	inhibition ([3]; NAC:test compound wt/wt ratio 1:0.1) [%]
O=C(Nc1ccc(O)c(O)c1)C(=O)Nc1ccc(O)c(O)c1 [Compound 63, oxalic acid bis(3,4-dihydroxyanilide)]	1.6 ± 9.47	57.5 ± 10.6	23.6 ± 25.8	85.3 ± 0.91	0.0 ± 2.25	11.7 ± 2.26	4.5 ± 1.62	15.4 ± 1.34	17.3 ± 12.6	33 ± 1.69	45.6 ± 31	dose-dependent disruption/disassembly	19 ± 0.3	56.2 ± 8.77	84.2 ± 1.16	94.9 ± 0.65	–
O=C(c1ccc(O)c(O)c1)C(O)c1ccc(O)c(O)c1 (centres unmarked) [Compound 1, 3,4,3′,4′-tetrahydroxybenzoin]	0	19.2 ± 4.31	64.8 ± 1.98	97.3 ± 0.23	–	18.6 ± 4.05	10.6 ± 3.40	40.7 ± 2.49	0	68.2 ± 2.55	100 ± 1	dose-dependent disruption/disassembly	6.4 ± 4.4	57.3 ± 0.16	93 ± 1.27	99 ± 0.11	99.5 ± 0.53
O=C(c1ccc(O)c(O)c1)N1CCN(C(=O)c2ccc(O)c(O)c2)CC1 [Compound 23, 1,4-bis(3,4-dihydroxybenzoyl)piperazine]	0	16.5 ± 4.02	26.2 ± 4.37	46.7 ± 4.62	5.1 ± 2.45	9.3 ± 1.40	4.5 ± 4.12	5.5 ± 2.33	0	35.6 ± 9.73	58 ± 8.43	–	27.3 ± 45.4	44.3 ± 32.5	67.2 ± 18.4	85.2 ± 0.55	–
